Assay results reported in US5079237A, “Inclusion complex of nicardipine or its hydrochloride with beta-cyclodextrin and a sustained release pharmaceutical preparation containing the same” (priority 1988, dated 1992).
Where a name gives a salt, the structure may show the parent alone.

Experiments:
[1] = known from DE patent 24 07 115; cited from earlier work
[2] = cited from earlier work
[3] = Differential scanning calorimetry: thermal stability (Example 4); assay type: physicochemical; conditions: DSC
Method: Nicardipine hydrochloride melts at 160° C., its thermal decomposition beginning at about 200° C. Beta-cyclodextrin contains combined water, which begins to separate off the sample already at about 40° C. The dehydratation of beta-cyclodextrin is completed at about 100° C. Anhydrous beta-cyclodextrin is stable up to 270° C., when thermal decomposition starts, which becomes intensive at 300° C. The behaviour of the inclusion complex of nicardipine hydrochloride with beta-cyclodextrin at the thermoanalytical assay is quite different. After the initial slight loss of weight at temperatures below 150° C., which can be attributed to the adsorbed moisture, the substance is stable up to about 220° C, when thermal decomposition sets in. […] The DSC scans of nicardipine hydrochloride, beta-cyclodextrin, the physical mixture of nicardipine hydrochloride and beta-cyclodextrin and of the inclusion complex of nicardipine hydrochloride with beta-cyclodextrin clearly indicate the formation of the inclusion complex of nicardipine hydrochloride with beta-cyclodextrin. Thus, the differential scanning calorimetry measurements are in accordance with the powder X-ray diffraction patterns.

[4] = Solubility in water of nicardipine (hydrochloride), complexed and non-complexed (Example 3); assay type: physicochemical; conditions: room temperature, saturated solution
Method: Solubility in water Comparative solubility of nicardipine and its hydrochloride resp. alone and of its inclusion complex with beta-cyclodextrin. The concentrations of the dissolved nicardipine and its hydrochloride resp. at room temperature were determined in clear filtrates of the saturated solutions by liquid chromatography using the external standard method.

[5] = Dissolution rate in artificial biological fluids, Paddle Method, USP XXI (Example 5); assay type: physicochemical; conditions: for % dissolution: 37° C., mean of three tests
Method: Dissolution rates of the complexed and the non-complexed nicardipine and its hydrochloride
40 mg of nicardipine hydrochloride or the equivalent amount of […] of the inclusion complex of nicardipine with beta-cyclodextrin were used.
The dissolution tests were performed in artificial gastric juice of pH 1.2 and in artificial intestinal juices of pH 6.0, 6.5 and 7.4 at the temperature of 37° C.±0.5° C. The volume of the artificial biological fluids was 1000 ml. The rotation speed of the paddle mixer was 100 rpm. The quantities of the dissolved nicardipine hydrochloride in the test samples were determined spectrophotometrically (λmax =240 nm).

[6] = Acute toxicity (LD50) in mice after p.o. administration (Example 6); assay type: in vivo; conditions: mouse, in vivo, po; for mortality at 24 h: read-out: % of perished animals after 24 hrs; for mortality at 360 h: read-out: % of perished animals after 15 days; for LD50 at 360 h: mice, p.o., Litchfield-Wilcoxon, read-out: LD50 after 15 days
Method: (§1) In toxicological tests acute toxicities (LD50) of nicardipine hydrochloride and of its inclusion complex with beta-cyclodextrin were determined in mice and rats. The complex contained 26.8% of nicardipine hydrochloride.
(§2) Albino laboratory mice weighing 18 to 24 g and rats weighing 180 to 240 g of both sexes were used. Nicardipine hydrochloride was administered in the following doses:
(§3) The volume of the administered suspension was in mice 0.2 to 0.4 ml/20 g of body weight and in rats 0.8 to 2.4 ml/200 g of body weight.
(§4) The inclusion complex of nicardipine hydrochloride with beta-cyclodextrin was administered in the following doses:
(§5) mice: 18500 mg/kg of body weight, corresponding to
(§6) 4958 mg of nicardipine/kg of body weight;
(§7) The volume of the administered suspension was in mice 0.6 ml/20 g of body weight and in rats 1.2 to 4.4 ml/200 g of body weight. The animals were left without food for 18 hours before the administration. After the administration the animals were put under observation and the symptoms of poisoning or behaviour changes were recorded for another 15 days. During the tests the animals were given food and water ad libitum.
(§8) The results were statistically evaluated according to the Litchfield-Wilcoxon method (J. Pharmacol. Exp. Therap. 96, 99 (1949)).

mice = assay: as above; assay type: in vivo; conditions: mice, p.o.; for LD50 after 15 days: Litchfield-Wilcoxon, 21600 min
Method: as §1, §2, §3, §4, §5, §6, §7, §8

[7] = Acute toxicity (LD50) in rats after p.o. administration (Example 6); assay type: in vivo; conditions: rat, in vivo, po; for mortality at 24 h: read-out: % of perished animals after 24 hrs; for mortality at 360 h: read-out: % of perished animals after 15 days; for LD50 at 360 h: rats, p.o., Litchfield-Wilcoxon, read-out: LD50 after 15 days
Method: as §1, §2, §3, §4
(§9) rats: 5000 mg/kg of body weight, corresponding to
(§10) 1340 mg of nicardipine/kg of body weight,
(§11) 11100 mg/kg of body weight, corresponding to
(§12) 2975 mg of nicardipine/kg of body weight,
(§13) 18500 mg/kg of body weight, corresponding to
(§14) 4958 mg of nicardipine/kg of body weight.
as §7, §8

rats = assay: as above; assay type: in vivo; conditions: rats, p.o.; for LD50 after 15 days: Litchfield-Wilcoxon, 21600 min
Method: as §1, §2, §3, §4, §9, §10, §11, §12, §13, §14, §7, §8

[8] = 1500 mg/kg, mice F, 1500 mg/kg p.o.
[9] = 1500 mg/kg, mice M, 1500 mg/kg p.o.
[10] = 3000 mg/kg, mice F, 3000 mg/kg p.o.
[11] = 3000 mg/kg, mice M, 3000 mg/kg p.o.
[12] = 4000 mg/kg, mice F, 4000 mg/kg p.o.
[13] = 5000 mg/kg, mice F, 5000 mg/kg p.o.
[14] = 5000 mg/kg, mice M, 5000 mg/kg p.o.
[15] = 6000 mg/kg, mice F, 6000 mg/kg p.o.
[16] = 6000 mg/kg, mice M, 6000 mg/kg p.o.
[17] = 2000 mg/kg, rats M, 2000 mg/kg p.o.
[18] = 2500 mg/kg, rats M, 2500 mg/kg p.o.
[19] = 3000 mg/kg, rats F, 3000 mg/kg p.o.
[20] = 3500 mg/kg, rats M, 3500 mg/kg p.o.
[21] = 4000 mg/kg, rats F, 4000 mg/kg p.o.
[22] = 5000 mg/kg, rats F, 5000 mg/kg p.o.
[23] = 5000 mg/kg, rats M, 5000 mg/kg p.o.
[24] = 6000 mg/kg, rats F, 6000 mg/kg p.o.

For COC(=O)C1=C(C)NC(C)=C(C(=O)OCCN(C)Cc2ccccc2)C1c1cccc([N+](=O)[O-])c1 (stereo not shown) [nicardipine, 2-(N-benzyl-N-methylamino)-ethyl methyl 2,6-dimethyl-4-(m-nitrophenyl)-1,4-dihydropyridine-3,5-dicarboxylate], the toxicity [1] is listed as “low toxicity”, the “solubility in biological fluids” value ([2]; pH of 5 to 8) is listed as “poor solubility” and the water solubility ([2]; water) is listed as “unsatisfactory”.
For OC[C@H]1O[C@@H]2O[C@H]3[C@H](O)[C@@H](O)[C@@H](O[C@H]4[C@H](O)[C@@H](O)[C@@H](O[C@H]5[C@H](O)[C@@H](O)[C@@H](O[C@H]6[C@H](O)[C@@H](O)[C@@H](O[C@H]7[C@H](O)[C@@H](O)[C@@H](O[C@H]8[C@H](O)[C@@H](O)[C@@H](O[C@H]1[C@H](O)[C@H]2O)O[C@@H]8CO)O[C@@H]7CO)O[C@@H]6CO)O[C@@H]5CO)O[C@@H]4CO)O[C@@H]3CO [beta-cyclodextrin], the “onset of thermal decomposition (stable up to)” value [3] was 270 °C and the “temperature at which thermal decomposition becomes intensive” value ([3]; anhydrous) was 300 °C.
With COC(=O)C1=C(C)NC(C)=C(C(=O)OCCN(C)Cc2ccccc2)C1c1cccc([N+](=O)[O-])c1 (stereo not shown) [nicardipine hydrochloride] the solubility [4] was 1500 µg/mL, the “dissolution, in words” value ([5]; gastric juice) was “dissolves quickly and completely” and the “% dissolution” value ([5]; gastric juice, pH 1.2, 10 min) was 93.5%. The “% dissolution” value ([5]; gastric juice, pH 1.2, 30 min) was 100.2%, the “% dissolution” value ([5]; intestinal juice, pH 6.0, 10 min) was 50.2% and the “% dissolution” value ([5]; intestinal juice, pH 6.0, 30 min) was 58.7%. The “% dissolution” value ([5]; intestinal juice, pH 6.5, 10 min) was 35.5%, the “% dissolution” value ([5]; intestinal juice, pH 6.5, 30 min) was 39.0% and the “% dissolution” value ([5]; intestinal juice, pH 7.4, 10 min) was 1.0%. For the same molecule, the “% dissolution” value ([5]; intestinal juice, pH 7.4, 30 min) was 1.3%, the mortality at 24 h [6, 8] was 20% and the mortality at 360 h [6, 8] was 20%. For the same molecule, the mortality at 24 h [6, 9] was 0%, the mortality at 360 h [6, 9] was 0% and the mortality at 24 h [6, 10] was 40%. The mortality at 360 h [6, 10] was 40%, the mortality at 24 h [6, 11] was 30% and the mortality at 360 h [6, 11] was 40%. It also gave a mortality at 24 h [6, 12] of 30%, a mortality at 360 h [6, 12] of 50% and a mortality at 24 h [6, 13] of 40%. It also gave a mortality at 360 h [6, 13] of 70%, a mortality at 24 h [6, 14] of 40% and a mortality at 360 h [6, 14] of 70%. For the same molecule, the mortality at 24 h [6, 15] was 90%, the mortality at 360 h [6, 15] was 90% and the mortality at 24 h [6, 16] was 90%. The mortality at 360 h [6, 16] was 100%, the LD50 at 360 h ([6]; F) was 3640 mg/kg and the LD50 at 360 h ([6]; M) was 3760 mg/kg. The “LD50 after 15 days” value (mice; F) was 3639 (2637-5022) mg/kg, the “LD50 after 15 days” value (mice; M) was 3756 (2815-5012) mg/kg and the recovery of animals (mice) was “recovered after 24 hours”. For the same molecule, the symptoms of poisoning (mice) was “dyspnoea and paresis”, the mortality at 24 h [7, 17] was 40% and the mortality at 360 h [7, 17] was 40%. The mortality at 24 h [7, 18] was 40%, the mortality at 360 h [7, 18] was 40% and the mortality at 24 h [7, 19] was 0%. It also gave a mortality at 360 h [7, 19] of 0%, a mortality at 24 h [7, 20] of 60% and a mortality at 360 h [7, 20] of 60%. For the same molecule, the mortality at 24 h [7, 21] was 10%, the mortality at 360 h [7, 21] was 20% and the mortality at 24 h [7, 22] was 44.4%. It also gave a mortality at 360 h [7, 22] of 66.6%, a mortality at 24 h [7, 23] of 80% and a mortality at 360 h [7, 23] of 80%. For the same molecule, the mortality at 24 h [7, 24] was 80%, the mortality at 360 h [7, 24] was 80% and the LD50 at 360 h ([7]; F) was 4790 mg/kg. The LD50 at 360 h ([7]; M) was 2900 mg/kg, the “LD50 after 15 days” value (rats; F) was 4791 (4206-5458) mg/kg and the “LD50 after 15 days” value (rats; M) was 2900 (1635-5143) mg/kg. The recovery of animals (rats) was “recovered after 24 hours”, the symptoms of poisoning (rats) was “dyspnoea and paresis” and the “onset of thermal decomposition (stable up to)” value [3] was “about 200 °C”. For the same molecule, the “solubility at higher pH values” ([2]; higher pH values) was “very poor” and the “solubility at low pH values” ([2]; low pH values) was “good”.
